Measured values published in ChEMBL document CHEMBL3243956, “Plant antitumor agents. 17. Structural requirements for antineoplastic activity in quassinoids” (1978).

Experiments:
Assay type in all cases: functional
P388 [1] = experiment: Antileukemic activity against mouse P388 cells allografted in mouse assessed as increase in host survival at 4 mg/kg relative to control
P388 [2] = experiment: Antileukemic activity against mouse P388 cells allografted in mouse assessed as increase in host survival at 2 mg/kg relative to control
P388 [3] = experiment: Antileukemic activity against mouse P388 cells allografted in mouse assessed as increase in host survival at 0.5 mg/kg relative to control
P388 [4] = experiment: Antileukemic activity against mouse P388 cells allografted in mouse assessed as increase in host survival at 8 mg/kg relative to control
P388 [5] = experiment: Antileukemic activity against mouse P388 cells allografted in mouse assessed as increase in host survival at 1 mg/kg relative to control
P388 [6] = experiment: Antileukemic activity against mouse P388 cells allografted in mouse assessed as increase in host survival at 0.25 mg/kg relative to control
P388 [7] = experiment: Antileukemic activity against mouse P388 cells allografted in mouse assessed as increase in host survival at 2.5 mg/kg relative to control
P388 [8] = experiment: Antileukemic activity against mouse P388 cells allografted in mouse assessed as increase in host survival at 1.25 mg/kg relative to control
P388 [9] = experiment: Antileukemic activity against mouse P388 cells allografted in mouse assessed as increase in host survival at 10 mg/kg relative to control
P388 [10] = experiment: Antileukemic activity against mouse P388 cells allografted in mouse assessed as increase in host survival at 5 mg/kg relative to control

Q: Which T/C (P388 [1]) does the source give for CC(=O)O[C@@H]1C(=O)C=C(C)[C@@H]2[C@@H](OC(=O)C=C(C)C)[C@H]3OC(=O)C[C@H]4[C@@H](C)[C@@H](O)[C@]5(O)OC[C@]34[C@H]5[C@@]12C here?
A: 142%

Q: And the T/C (P388 [2])?
A: 132%

Q: What about the T/C (P388 [3]) of the same compound?
A: 118%

Q: And the T/C (P388 [4])?
A: 142%

Q: And the T/C (P388 [5])?
A: 121%

Q: How did the T/C (P388 [1]) turn out when CC(=O)OC[C@]12[C@@H]3OC(=O)C[C@H]1[C@@H](C)[C@@H](OC(C)=O)C(=O)[C@@H]2[C@@]1(C)[C@H](OC(C)=O)C(=O)C=C(C)[C@@H]1[C@H]3OC(=O)C=C(C)C was run?
A: 101%

Q: And the T/C (P388 [2])?
A: 102%

Q: And the T/C (P388 [3])?
A: 100%

Q: What about the T/C (P388 [4]) of the same compound?
A: 102%

Q: What about the T/C (P388 [5]) of the same compound?
A: 97%

Q: Which T/C (P388 [6]) does the source give for CC(C)=CC(=O)O[C@@H]1[C@H]2C(C)=CC(=O)[C@H](O)[C@]2(C)[C@H]2[C@]3(O)OC[C@@]24[C@@H]1OC(=O)C[C@H]4[C@@H](C)[C@H]3O here?
A: 145%

Q: What about the T/C (P388 [2]) of the same compound?
A: 191%

Q: What about the T/C (P388 [3]) of the same compound?
A: 161%

Q: What about the T/C (P388 [5]) of the same compound?
A: 198%

Q: Which results are given for CC(=O)O[C@@H]1[C@H](C)[C@@H]2CC(=O)O[C@@H]3[C@H](OC(=O)C=C(C)C)[C@H]4C(C)=CC(=O)[C@@H](OC(C)=O)[C@]4(C)[C@H]4[C@@]1(O)OC[C@@]342?
A: T/C (P388 [7]): 107%; T/C (P388 [8]): 104%; T/C (P388 [9]): 107%; T/C (P388 [10]): 107%
